Literature values, collected in patent US11147268B2, “Food contact surface sanitizing liquid” (THE CLOROX COMPANY, priority 2015, dated 2021).

Compound | Vapor Pressure mmHg (@25° C.) | Vapor Pressure mmHg @ 20° C. [mmHg]
CC(CO)CO [2-methyl 1,3 propanediol] | 0.021 (@25° C.) mmHg | –
CC(C)O [Isopropyl alcohol] | – | 33
OCCCO [1,3 propanediol] | – | 0.8
CCO [Ethanol] | – | 43
CC(O)CO (centres unmarked) [1,2, propylene glycol] | – | 0.07
